{"source": "patent US20140262858A1", "about": "“PACKAGING FOR ALITRETINOIN” (RANBAXY LABORATORIES LIMITED, priority 2011, published 2014)", "key": {"[1]": {"test": "Stability study of alitretinoin in vacuum-sealed pack in the absence of oxygen absorber and silica gel desiccant (HPLC impurities)", "type": "physicochemical", "conditions": "Initial; no oxygen absorber, no silica gel desiccant", "protocol": "(§1) Stability studies of alitretinoin were conducted by loading alitretinoin samples at various stability conditions, for example, at 25±2° C./60±5% relative humidity (RH) and 40±2° C./75±5% RH in the absence or presence of an oxygen absorber and a silica desiccant for 1 month, 2 months, 3 months, or 6 months. The stability studies were performed on a stability incubator (for accelerated stability studies, Hotpack was used and for real time stability studies, NuAire® was used). The degradation products were identified using an Agilent® 1100 series HPLC system.\nAlitretinoin was packed in a LDPE bag. The bag was twisted and tied with a plastic fastener under nitrogen. The LDPE bag was placed into a middle bag of polyester/LDPE and vacuum was applied to the middle bag and then it was heat sealed. The sealed middle bag was packed into a polyester/aluminum/polyester/LDPE bag. Vacuum was applied to this bag and then it was heat sealed. The vacuum-sealed pack was loaded on stability at stations 40±2° C. and 75±5% RH (accelerated) and 25±2° C. and 60±5% RH."}, "[2]": {"test": "Stability study of alitretinoin at 25±2° C./60±5% RH in vacuum-sealed pack in the presence of oxygen absorber (Stabilox) and silica gel desiccant", "type": "physicochemical", "set-up": "4-Hydroxy alitretinoin impurity / 5,6-Epoxy alitretinoin impurity / Total related substances / 4-Oxo-alitretinoin impurity: unit not given here", "conditions": "for 4-Hydroxy alitretinoin impurity / 4-Oxo-alitretinoin impurity / 5,6-Epoxy alitretinoin impurity / Total related substances: with oxygen absorber and silica gel desiccant", "protocol": "as §1\nAlitretinoin was packed in a LDPE bag. The bag was twisted and tied with a plastic fastener under nitrogen. The LDPE bag was placed into a middle bag of polyester/LDPE along with an oxygen absorber. A vacuum was applied to the middle bag and then it was heat sealed. The sealed middle bag was packed into a polyester/aluminum/polyester/LDPE bag along with silica gel as a desiccant. Vacuum was applied to this bag and it was then heat sealed. The vacuum-sealed pack was loaded on stability at 25±2° C. and 60±5% RH."}, "[3]": {"test": "Stability study of alitretinoin at 40±2° C./75±5% RH in vacuum-sealed pack in the presence of oxygen absorber (Stabilox) and silica gel desiccant", "type": "physicochemical", "set-up": "4-Hydroxy alitretinoin impurity / 5,6-Epoxy alitretinoin impurity / Total related substances / 4-Oxo-alitretinoin impurity: unit not given here", "conditions": "for 4-Oxo-alitretinoin impurity / 5,6-Epoxy alitretinoin impurity / Total related substances / 4-Hydroxy alitretinoin impurity: with oxygen absorber and silica gel desiccant", "protocol": "as §1\nAlitretinoin was packed in a LDPE bag; the bag was twisted and tied with a plastic fastener under nitrogen. It was placed into a middle bag of polyester/LDPE along with an oxygen absorber. Vacuum was applied to the middle bag and then it was heat sealed. This sealed middle bag was packed into a polyester/aluminum/polyester/LDPE bag along with silica gel as a desiccant. Vacuum was applied to this bag and then it was heat sealed. The vacuum-sealed pack was loaded on stability at 40±2° C. and 75±5% RH."}, "[4]": {"conditions": "in the presence of oxygen; cited from earlier work"}}, "note": "Where “and” joins values, the source holds several entries; their conditions need not be identical. Equal entries are not always repeated."}
{"smiles": "CC1=C(/C=C/C(C)=C\\C=C\\C(C)=C\\C(=O)O)C(C)(C)CCC1", "note": "[Alitretinoin, (2E,4E,6Z,8E)-3,7-dimethyl-9-(2,6,6-trimethyl-1-cyclohexenyl)-2,4,6,8-nonatraenoic acid]", "values": [{"measurement": "Total related substances", "setting": "[1]", "result": "0.403 and 0.411 and 0.351"}, {"measurement": "4-Hydroxy alitretinoin impurity", "setting": "[2]; 3M/25 ± 2° C./60 ± 5% RH", "result": 0.003}, {"measurement": "4-Oxo-alitretinoin impurity", "setting": "[2]; 3M/25 ± 2° C./60 ± 5% RH", "result": "0.003 and 0.002"}, {"measurement": "5,6-Epoxy alitretinoin impurity", "setting": "[2]; 3M/25 ± 2° C./60 ± 5% RH", "result": "0.008 and 0.005"}, {"measurement": "Total related substances", "setting": "[2]; 3M/25 ± 2° C./60 ± 5% RH", "result": "0.198 and 0.195 and 0.179"}, {"measurement": "4-Hydroxy alitretinoin impurity", "setting": "[2]; 6M/25 ± 2° C./60 ± 5% RH", "result": "0.002 and 0.003"}, {"measurement": "4-Oxo-alitretinoin impurity", "setting": "[2]; 6M/25 ± 2° C./60 ± 5% RH", "result": "0.004 and 0.003"}, {"measurement": "5,6-Epoxy alitretinoin impurity", "setting": "[2]; 6M/25 ± 2° C./60 ± 5% RH", "result": "0.006 and 0.008 and 0.005"}, {"measurement": "Total related substances", "setting": "[2]; 6M/25 ± 2° C./60 ± 5% RH", "result": "0.183 and 0.193 and 0.167"}, {"measurement": "Change in oxidative impurities on storage", "setting": "[2]; 25±2° C./60±5% RH (Table 2), in the presence of an oxygen absorber and a silica gel desiccant", "result": "no increase in oxidative impurities"}, {"measurement": "4-Hydroxy alitretinoin impurity", "setting": "[2]; Initial", "result": 0.002}, {"measurement": "4-Oxo-alitretinoin impurity", "setting": "[2]; Initial", "result": "0.002 and 0.003"}, {"measurement": "5,6-Epoxy alitretinoin impurity", "setting": "[2]; Initial", "result": "0.006 and 0.009"}, {"measurement": "Total related substances", "setting": "[2]; Initial", "result": "0.165 and 0.189 and 0.173"}, {"measurement": "4-Oxo-alitretinoin impurity", "setting": "[3]; 1M/40 ± 2° C./75 ± 5% RH", "result": "0.004 and 0.003"}, {"measurement": "5,6-Epoxy alitretinoin impurity", "setting": "[3]; 1M/40 ± 2° C./75 ± 5% RH", "result": "0.008 and 0.006"}, {"measurement": "Total related substances", "setting": "[3]; 1M/40 ± 2° C./75 ± 5% RH", "result": "0.173 and 0.182 and 0.160"}, {"measurement": "4-Hydroxy alitretinoin impurity", "setting": "[3]; 2M/40 ± 2° C./75 ± 5% RH", "result": "0.003 and 0.002 and 0.004"}, {"measurement": "4-Oxo-alitretinoin impurity", "setting": "[3]; 2M/40 ± 2° C./75 ± 5% RH", "result": "0.003 and 0.002"}, {"measurement": "5,6-Epoxy alitretinoin impurity", "setting": "[3]; 2M/40 ± 2° C./75 ± 5% RH", "result": "0.010 and 0.008 and 0.007"}, {"measurement": "Total related substances", "setting": "[3]; 2M/40 ± 2° C./75 ± 5% RH", "result": "0.191 and 0.192 and 0.180"}, {"measurement": "4-Hydroxy alitretinoin impurity", "setting": "[3]; 3M/40 ± 2° C./75 ± 5% RH", "result": "0.003 and 0.002"}, {"measurement": "4-Oxo-alitretinoin impurity", "setting": "[3]; 3M/40 ± 2° C./75 ± 5% RH", "result": "0.003 and 0.004"}, {"measurement": "5,6-Epoxy alitretinoin impurity", "setting": "[3]; 3M/40 ± 2° C./75 ± 5% RH", "result": "0.008 and 0.010 and 0.006"}, {"measurement": "Total related substances", "setting": "[3]; 3M/40 ± 2° C./75 ± 5% RH", "result": "0.192 and 0.205 and 0.177"}, {"measurement": "4-Hydroxy alitretinoin impurity", "setting": "[3]; 6M/40 ± 2° C./75 ± 5% RH", "result": 0.002}, {"measurement": "4-Oxo-alitretinoin impurity", "setting": "[3]; 6M/40 ± 2° C./75 ± 5% RH", "result": "0.003 and 0.004"}, {"measurement": "5,6-Epoxy alitretinoin impurity", "setting": "[3]; 6M/40 ± 2° C./75 ± 5% RH", "result": "0.006 and 0.007"}, {"measurement": "Total related substances", "setting": "[3]; 6M/40 ± 2° C./75 ± 5% RH", "result": "0.175 and 0.188 and 0.167"}, {"measurement": "Change in oxidative impurities on storage", "setting": "[3]; 40±2° C./75±5% RH (Table 3), in the presence of an oxygen absorber and a silica gel desiccant", "result": "no increase in oxidative impurities"}, {"measurement": "4-Hydroxy alitretinoin impurity", "setting": "[3]; Initial", "result": 0.002}, {"measurement": "4-Oxo-alitretinoin impurity", "setting": "[3]; Initial", "result": "0.002 and 0.003"}, {"measurement": "5,6-Epoxy alitretinoin impurity", "setting": "[3]; Initial", "result": "0.006 and 0.009"}, {"measurement": "Total related substances", "setting": "[3]; Initial", "result": "0.165 and 0.189 and 0.173"}, {"measurement": "Decomposition", "setting": "[4]", "result": "decomposition was extensive"}]}
